Values quoted from earlier work as cited in US20110086070A1, “Orally disintegrating compositions of rhein or diacerein” (priority 2008, published 2011).
Structures can show the parent of a compound that is named as a salt.

What was measured:
[1] = oral route

| SMILES | solubility in water (water, disclosed in EP 243,968) | solubility in solvents (solvents such as water, alcohols, acetone, dichloromethane and chloroform) | absorption by the digestive tract [1] |
| --- | --- | --- | --- |
| CC(=O)Oc1cccc2c1C(=O)c1c(OC(C)=O)cc(C(=O)O)cc1C2=O [potassium salt of diacerein] | water-soluble | – | – |
| CC(=O)Oc1cccc2c1C(=O)c1c(OC(C)=O)cc(C(=O)O)cc1C2=O [Diacerein, 4,5-bis(acetyloxy)9,10-dihydro-4,5-dihydroxy-9,10-dioxo-2-anthracenecarboxylic acid] | – | practically insoluble | cannot be completely absorbed |
